From US6770593B1, “Fertilizer” (Mandops (UK) Limited, priority 1999, dated 2004)

Experiments:
Type in all cases: in vivo
[1] = system: Spring Barley; assay: Growth of spring barley, with chlormequat (Table E1); conditions: applied at 3 leaves stage, CCC 1.25 l/ha, ATS 1.25 l/ha, KS 20 g/ha
[2] = system: Spring Barley; assay: Tillers of spring barley, with chlormequat at T1 and T2 (Table E2); conditions: applied at T1 (3 leaves stage) & T2 (prior to start of stem extension), CCC 0.8 l/ha, ATS 0.8 l/ha, KS 20 g/ha
[3] = system: Powdery Mildew; assay: Powdery mildew on spring barley, with chlormequat (Table E1); conditions: applied at 3 leaves stage, CCC 1.25 l/ha, ATS 1.25 l/ha, KS 20 g/ha
[4] = system: Powdery Mildew; assay: Powdery mildew on spring barley, with chlormequat at T1 and T2 (Table E2); conditions: applied at T1 (3 leaves stage) & T2 (prior to start of stem extension), CCC 0.8 l/ha, ATS 0.8 l/ha, KS 20 g/ha

C[N+](C)(C)CCCl.[Cl-] [CCC, Chlormequat]
Above Ground Dry Weight (g) Total of 10 plants [1]: 3.7 g
Above Ground Fresh Weight (g) Total of 10 plants [1]: 34.0 g
Amount of Rooting (0-9) Mean of 10 plants [1]: 5.5
Number of Tillers Initiated per Plant (mean of 10 plants) [2]: 3.5
Powdery Mildew (%) at +15 days [3]: 15%
Powdery Mildew (%) at +12 days [4]: 8%
Powdery Mildew (%) at +15 days [4]: 8%
Powdery Mildew (%) at +18 days [4]: 10%
